Measurements taken from US8592456B2 (4SC Discovery GmbH, priority 2011, dated 2013).

Each compound was assayed on PBMC (T cell proliferation) (assay: T cell proliferation assay, PHA-stimulated human PBMC (BrdU ELISA)). Conditions: PHA-stimulated human PBMC, 48 hours, BrdU; column D; activity classes 1-4; read-out: IC50 (Tcell proliferation).
Format: cell-based
Protocol: Cell proliferation was analysed using the BrdU based cell proliferation ELISA from Roche (Mannheim, Germany) according to the manufacturer's instructions.
T Cell Proliferation Assay
Peripheral blood mononuclear cells (PBMC) from healthy human donors were isolated by centrifugation over Ficoll-Hypaque (Sigma-Aldrich, Germany) according to manufacturer's instructions. Purified PBMC were washed twice with PBS and resuspended in RPMI1640 culture medium supplemented with 10% dialyzed heat inactivated fetal calf serum, 1.5 mM L-glutamine, 100 U penicillin/ml, and […] (all from PAN Biotech, Aidenbach, Germany). For stimulation, PBMC were seeded at 1×10^5 cells/well, activated with 2 μg/ml phytohaemagglutinin (PHA, Sigma) and incubated with the test compound. After 48 hours proliferation was measured using the BrdU based cell proliferation ELISA from Roche (Mannheim, Germany) according to the manual.

First: Fc1cccc(Cl)c1-c1noc(-c2cnn(-c3cccc(Cl)c3)c2C(F)(F)F)c1-c1nncs1 [IB-8, 3-(2-chloro-6-fluorophenyl)-5-(1-(3-chlorophenyl)-5-(trifluoromethyl)-1H-pyrazol-4-yl)-4-(1,3,4-thiadiazol-2-yl)isoxazole]
Second: CCOC(=O)c1csc(-c2c(-c3c(F)cccc3Cl)noc2-c2cnn(-c3cccc(F)c3)c2C(F)(F)F)n1 [IB-1, ethyl 2-{3-(2-chloro-6-fluorophenyl)-5-[1-(3-fluorophenyl)-5-(trifluoromethyl)-1H-pyrazol-4-yl]isoxazol-4-yl}-1,3-thiazole-4-carboxylate]
The IC50 of the first is lower: < 10 nM for the first, 100 to 1000 nM for the second. The first is the more potent here.

Compound `Cc1nnc(-c2c(-c3c(F)cccc3Cl)noc2-c2cnn(-c3ccccc3Cl)c2C(F)(F)F)o1` [IB-18, 2-(3-(2-chloro-6-fluorophenyl)-5-(1-(2-chlorophenyl)-5-(trifluoromethyl)-1H-pyrazol-4-yl)isoxazol-4-yl)-5-methyl-1,3,4-oxadiazole] has an IC50 of 1000 to 10000 nM.

Same assay, conditions: human PBMC, 2 μg/ml PHA, 48 hours, BrdU; read-out: D: IC50 (Tcell proliferation)

Compared with `CCOC(=O)c1c(-c2c(F)cccc2Cl)noc1-c1cnn(-c2cccc(C#N)c2)c1C(F)(F)F` [Example B-32, ethyl 3-(2-chloro-6-fluorophenyl)-5-(1-(3-cyanophenyl)-5-(trifluoromethyl)-1H-pyrazol-4-yl)isoxazole-4-carboxylate], `CCOC(=O)c1c(-c2c(F)cccc2Cl)noc1-c1cnn(-c2ccncc2)c1C(F)(F)F` [Example B-38, ethyl 3-(2-chloro-6-fluorophenyl)-5-(1-(pyridin-4-yl)-5-(trifluoromethyl)-1H-pyrazol-4-yl)-isoxazole-4-carboxylate] is lower in IC50: 10 to 100 nM for the first, < 10 nM for the second.

Compared with `CCOC(=O)c1c(-c2c(F)cccc2Cl)noc1-c1cnn(CCOC)c1C(F)(F)F` [Example B-2, ethyl 3-(2-chloro-6-fluorophenyl)-5-(1-(2-methoxyethyl)-5-(trifluoromethyl)-1H-pyrazol-4-yl)isoxazole-4-carboxylate], `COC(=O)c1c(-c2c(F)cccc2Cl)noc1-c1cnn(-c2ccccc2)c1C(F)(F)F` [Example 48, methyl 3-(2-chloro-6-fluorophenyl)-5-(1-phenyl-5-(trifluomethyl)1H-pyrazol-4-yl)isoxazole-4-carboxylate] is lower in IC50: 1000 to 10000 nM for the first, 10 to 100 nM for the second.

`CN1CCN(C(=O)c2c(-c3c(F)cccc3Cl)noc2-c2cnn(-c3ccccc3F)c2C(F)(F)F)CC1` [Example 17, (3-(2-chloro-6-fluorophenyl)-5-(1-(2-fluorophenyl)-5-(trifluoromethyl)-1H-pyrazol-4-yl)isoxazol-4-yl)(4-methylpiperazin-1-yl)methanone] and `O=C(c1c(-c2c(F)cccc2Cl)noc1-c1cnn(-c2cccc(Cl)c2)c1C(F)(F)F)N1CCOCC1` [Example B-35, (3-(2-chloro-6-fluorophenyl)-5-(1-(3-chlorophenyl)-5-(trifluoromethyl)-1H-pyrazol-4-yl)isoxazol-4-yl)(morpholino)methanone] fall in the same range of IC50: 1000 to 10000 nM for the first, 1000 to 10000 nM for the second.

`Fc1cccc(Cl)c1-c1noc(-c2cnn(-c3ccccc3)c2C(F)(F)F)c1Br` [Example 145, 4-bromo-3-(2-chloro-6-fluorophenyl)-5-(1-phenyl-5-(trifluoromethyl)-1H-pyrazol-4-yl)isoxazole] and `Fc1cccc(-n2ncc(-c3onc(-c4c(F)cccc4Cl)c3Br)c2C(F)(F)F)c1` [Example 137, 4-bromo-3-(2-chloro-6-fluorophenyl)-5-(1-(3-fluorophenyl)-5-(trifluoromethyl)-1H-pyrazol-4-yl)isoxazole] fall in the same range of IC50: 10 to 100 nM for the first, 10 to 100 nM for the second.

First: COC(=O)c1c(-c2ccccc2F)noc1-c1cnn(-c2cccc(F)c2)c1C(F)(F)F [Example 92, methyl 3-(2-fluorophenyl)-5-(1-(3-fluorophenyl)-5-(trifluoromethyl)-1H-pyrazol-4-yl)isoxazole-4-carboxylate]
Second: COC(=O)c1c(-c2ccccc2Cl)noc1-c1cnn(-c2cccc(Cl)c2)c1C(F)(F)F [Example B-71, methyl 3-(2-chlorophenyl)-5-(1-(3-chlorophenyl)-5-(trifluoromethyl)-1H-pyrazol-4-yl)isoxazole-4-carboxylate]
The IC50 of the first is higher: 100 to 1000 nM for the first, < 10 nM for the second. The second is the more potent here.

First: CCOC(=O)c1c(-c2onc(-c3c(F)cccc3Cl)c2C(=O)OC)cnn1-c1cccc(Cl)c1 [Example 10, methyl 3-(2-chloro-6-fluorophenyl)-5-(1-(3-chlorophenyl)-5-(ethoxycarbonyl)-1H-pyrazol-4-yl)isoxazole-4-carboxylate]
Second: COC(=O)c1c(-c2c(F)cccc2Cl)noc1-c1cnn(-c2cccc(Cl)c2)c1C(F)(F)F [Example 11, methyl 3-(2-chloro-6-fluorophenyl)-5-(1-(3-chlorophenyl)-5-(trifluoromethyl)-1H-pyrazol-4-yl)isoxazole-4-carboxylate]
The IC50 of the first is higher: 10 to 100 nM for the first, < 10 nM for the second. The second is the more potent here.

`Fc1ccc(-n2ncc(-c3onc(-c4c(F)cccc4Cl)c3Br)c2C(F)(F)F)c(F)c1` [Example B-24, 4-bromo-3-(2-chloro-6-fluorophenyl)-5-(1-(2,4-difluorophenyl)-5-(trifluoromethyl)-1H-pyrazol-4-yl)isoxazole] and `CC(=O)Nc1c(-c2c(F)cccc2Cl)noc1-c1cnn(-c2cccc(F)c2)c1C(F)(F)F` [Example 139, N-(3-(2-chloro-6-fluorophenyl)-5-(1-(3-fluorophenyl)-5-(trifluoromethyl)-1H-pyrazol-4-yl)isoxazol-4-yl)acetamide] fall in the same range of IC50: 1000 to 10000 nM for the first, 1000 to 10000 nM for the second.

Compared with `CNC(=O)c1c(-c2c(F)cccc2Cl)noc1-c1cnn(-c2ccc(F)cc2)c1C(F)(F)F` [Example 55, 3-(2-chloro-6-fluorophenyl)-5-(1-(4-fluorophenyl)-5-(trifluoromethyl)-1H-pyrazol-4-yl)-N-methylisoxazole-4-carboxamide], `CSC(=O)c1c(-c2c(F)cccc2Cl)noc1-c1cnn(-c2cccc(Cl)c2)c1C(F)(F)F` [Example 126, S-methyl 3-(2-chloro-6-fluorophenyl)-5-(1-(3-chlorophenyl)-5-(trifluoromethyl)-1H-pyrazol-4-yl)isoxazole-4-carbothioate] is lower in IC50: 100 to 1000 nM for the first, < 10 nM for the second. The second is the more potent here.

First: O=C(c1c(-c2c(F)cccc2Cl)noc1-c1cnn(-c2cccc(Cl)c2)c1C(F)(F)F)N1CCCO1 [Example 132, (3-(2-chloro-6-fluorophenyl)-5-(1-(3-chlorophenyl)-5-(trifluoromethyl)-1H-pyrazol-4-yl)isoxazol-4-yl)(isoxazolidin-2-yl)methanone]
Second: O=C(c1c(-c2c(F)cccc2Cl)noc1-c1cnn(-c2ccncc2)c1C(F)(F)F)N1CCCO1 [Example B-57, (3-(2-chloro-6-fluorophenyl)-5-(1-(pyridin-4-yl)-5-(trifluoromethyl)-1H-pyrazol-4-yl)isoxazol-4-yl)(isoxazolidin-2-yl)methanone]
The IC50 of the first is lower: 10 to 100 nM for the first, 1000 to 10000 nM for the second.

First: COC(=O)c1c(-c2c(F)cccc2Cl)noc1-c1cnn(-c2cccc(Cl)c2Cl)c1C(F)(F)F [Example 4, methyl 3-(2-chloro-6-fluorophenyl)-5-(1-(2,3-dichlorophenyl)-5-(trifluoromethyl)-1H-pyrazol-4-yl)isoxazole-4-carboxylate]
Second: CC(C)OC(=O)c1c(-c2c(F)cccc2Cl)noc1-c1cnn(-c2cccc(Cl)c2)c1C(F)(F)F [Example B-31, isopropyl 3-(2-chloro-6-fluorophenyl)-5-(1-(3-chlorophenyl)-5-(trifluoromethyl)-1H-pyrazol-4-yl)isoxazole-4-carboxylate]
The IC50 of the first is higher: 1000 to 10000 nM for the first, < 10 nM for the second.

Compared with `O=C(O)c1c(-c2c(F)cccc2Cl)noc1-c1cnn(Cc2ccccc2F)c1C(F)(F)F` [Example B-86, 3-(2-chloro-6-fluorophenyl)-5-(1-(2-fluorobenzyl)-5-(trifluoromethyl)-1H-pyrazol-4-yl)isoxazole-4-carboxylic acid], `CC(=O)Nc1cccc(-n2ncc(-c3onc(-c4c(F)cccc4Cl)c3C(=O)OC(C)C)c2C(F)(F)F)c1` [Example B-78, isopropyl 5-(1-(3-acetamidophenyl)-5-(trifluoromethyl)-1H-pyrazol-4-yl)-3-(2-chloro-6-fluorophenyl)isoxazole-4-carboxylate] is lower in IC50: 1000 to 10000 nM for the first, 100 to 1000 nM for the second.

`COC(=O)c1c(-c2c(F)cccc2Cl)noc1-c1cnn(-c2onc(-c3ccc(Cl)cc3)c2C(=O)OC)c1C(F)(F)F` [Example 131, methyl 3-(2-chloro-6-fluorophenyl)-5-{[1-(4-methoxycarbonyl-3-(4-chlorophenyl)isoxazol-5-yl)-5-trifluoromethyl-1H-pyrazol-4-yl]}-isoxazole-4-carboxylate] and `COc1ccc(-c2noc(-c3cnn(-c4cccc(F)c4)c3C(F)(F)F)c2C(=O)O)cc1` [Example 108, 5-(1-(3-fluorophenyl)-5-(trifluoromethyl)-1H-pyrazol-4-yl)-3-(4-methoxyphenyl)isoxazole-4-carboxylic acid] fall in the same range of IC50: 1000 to 10000 nM for the first, 1000 to 10000 nM for the second.

Compared with `N#Cc1c(-c2c(F)cccc2Cl)noc1-c1cnn(-c2cccc(Cl)c2)c1C(F)(F)F` [Example 49, 3-(2-chloro-6-fluorophenyl)-5-(1-(3-chlorophenyl)-5-(trifluoromethyl)-1H-pyrazol-4-yl)isoxazole-4-carbonitrile], `CCOC(=O)c1c(-c2ccccc2Cl)noc1-c1cnn(-c2cccc(Cl)c2)c1C(F)(F)F` [Example B-41, ethyl 3-(2-chlorophenyl)-5-(1-(3-chlorophenyl)-5-(trifluoromethyl)-1H-pyrazol-4-yl)-isoxazole-4-carboxylate] is lower in IC50: 100 to 1000 nM for the first, 10 to 100 nM for the second. The second is the more potent here.

In the case of `CCOC(=O)c1c(-c2ccncc2F)noc1-c1cnn(-c2ccccn2)c1C(F)(F)F` [Example B-8, ethyl 3-(3-fluoropyridin-4-yl)-5-(1-(pyridin-2-yl)-5-(trifluoromethyl)-1H-pyrazol-4-yl)isoxazole-4-carboxylate], the IC50 is reported as 1000 to 10000 nM.
